# Experimental data published in patent US20130237610A1, “DYNAMIC BALANCING OF AUTONOMIC NERVOUS SYSTEM THROUGH VITAMIN MK-7” (priority 2010, published 2013).
# What was measured:
# healthy male volunteers = test: ANS activity (sympathovagal balance) measured by ANSiscope in healthy male volunteers; format: in vivo, human; conditions: for general and systemic examination, Blood Pressure (Supine), pulse: 350 μg per day, 2 months; for percentage of ANS dysfunction / stage of ANS dysfunction: 1 cap per day of 350 μg, end of 2 months
# Method: […] ANS activity was measured and printed out in a graph form by the ANSiscope™, manufactured by DyAnsys a US based company. The instrument is US FDA approved patented instrument. This instrument assessed the autonomic function by calculating 500 Heart beats/RR intervals. After assessing this, the instrument will analyze the level of the dysfunction and the degree of autonomic neuropathy. For this reason they have classified autonomic dysfunction in 5 stages, namely Healthy (H), Early (E), Late (L), Advanced (A) and Most Advanced (MA). The percentage calculation values demarcating groups are: −11.5% to 11.5%: healthy group, 13.5% to 20%: early group, 23% to 50.99%: late group, 51% to 100%: advanced group and above falls in Most advance group.
# The study parameters assessed were sympathetic and parasympathetic tone, change in blood pressure (orthostatic intolerance, measured at right. brachial artery), pulse (assessed by measuring the pulse at right. radial artery) and physical and general examination. Study was performed on subjects in relaxed supine position without any external stimulation, usually 2 hrs. after breakfast during morning time for 2 consecutive months.
# Subjects who have Blood pressure beyond the range of 140/90 (supine) and 100/70 (standing) mm Hg, and Sugar Fasting more than 250 mg % and with any major illness are ruled out of study. All subjects were checked for baseline parameters on 0 day. Vitamin K2-7 (MK-7) in dose of 350 μg was administered on 3rd day after the baseline reading. MK-7 was continued for 2 months. Readings were taken on 3rd day, 15th day, 28st day, 50th day, 56th day and at 62nd day.
# rats = test: Chronic toxicity study, ECG of rats; format: in vivo; conditions: rat ECG
# Description: In another study on animal model during chronic toxicity study, it was discovered that MK-7 produces significant changes in ECG of rats. This discovery during basic pharmacology studies on MK-7 was investigated for its effect on Cardio Vascular System. It is during this study the investigator discovered the following findings (FIGS. 5 and 6).
# The main parameter which was observed during chronic toxicity studies in rat ECG was the prolongation of QT interval.
# ISO injected rats = test: Isoproterenol (ISO) induced cardiac injury model; format: in vivo, rat
# Method: During the yet another study conducted to assess the cardioprotective effect of vitamin K2-7, inventors of the current invention observe that the vitamin K2-7 improves the cardiac output parameters. Isoproterenol (ISO) induced cardiac injury model was selected for the study. It was observed that ISO induced cardiac output decrease in all the dose levels i.e. at 90 μg/kg, 450 μg/kg and 900 μg/kg. […] This effects was non-linear and was enhanced in 900 μg/kg dose.
# Effect of vitamin K2-7 on the left cardiac work has been evaluated in the same study. It was observed that administration of ISO leads to marked decrease in left cardiac work when measured 48 h after ISO injection in comparison to pre ISO level i.e. control.
# In the same study it was also observed that vitamin K2-7 enhances the High Density Lipoprotein (HDL) level in all the dose levels studied i.e. at 90 μg/kg, 450 μg/kg and 900 μg/kg. Isoproterenol (ISO) induced cardiac injury model was selected for the study. […] HDL cholesterol level for the treated group increased in comparison to the ISO controlled group. The observed increase was greater with respect to the dose level increased.
smiles,measurement,setting,value
CC(C)=CCC/C(C)=C/CC/C(C)=C/CC/C(C)=C/CC/C(C)=C/CC/C(C)=C/CC/C(C)=C/CC1=C(C)C(=O)c2ccccc2C1=O [MK-7],"other parameters (blood pressure, pulse, physical and general examination)",healthy male volunteers; 350 μg for 2 months,remained unaffected
same,"general and systemic examination, Blood Pressure (Supine), pulse",healthy male volunteers; person one,in normal range without any change from base line records
same,"general and systemic examination, Blood Pressure (Supine), pulse",healthy male volunteers; person two,in normal range without any change from base line records
same,parasympathetic activity,"healthy male volunteers; 350 μg, after 2 months of therapy",little effect
same,sympathetic activity,"healthy male volunteers; 350 μg, after 2 months of therapy, initially elevated",marked normalization
same,percentage of ANS dysfunction,"healthy male volunteers; person one, baseline 61%",31%
same,stage of ANS dysfunction,"healthy male volunteers; person one, baseline 'Advance stage'",Early (13.5% to 20%: early group)
same,percentage of ANS dysfunction,"healthy male volunteers; person two, baseline 25%",21%
same,stage of ANS dysfunction,"healthy male volunteers; person two, baseline 'Late stage'",Early (13.5% to 20%: early group)
same,PR interval,rats,not affected to significant extent
same,QTc change,rats,moderate non-significant shortening
same,heart rate,rats,no increase
same,prolongation of QTc,rats,did not cause any prolongation
same,QT interval,"rats; 100, 500, 1000 μg/kg",remained unaffected
same,QRS interval,"rats; 500, 1000 μg/kg",significant shortening
same,RR interval,"rats; 500, 1000 μg/kg",significant prolongation
same,ISO induced cardiac output decrease,ISO injected rats; 90 μg/kg and 450 μg/kg,reversed
same,ISO induced cardiac output decrease,ISO injected rats; 900 μg/kg,enhanced
same,"ISO induced left cardiac work decrease, reversal",ISO injected rats; 900 μg/kg vs other treatment groups,higher than other treatment groups
same,ISO induced left cardiac work decrease,"ISO injected rats; 90, 450 and 900 μg/kg, 48 h after ISO injection, vs ISO control",reversed to a great extent
same,HDL cholesterol level,"ISO injected rats; 90, 450 and 900 μg/kg, vs ISO control group",increased
same,blood sugar,"ISO injected rats; within 12 days, 90, 450 and 900 μg/kg",reducing blood sugar
